Reference: ChEMBL document CHEMBL1135135, “Synthesis and cytotoxicity of 2alpha-amido docetaxel analogues” (Bioorg Med Chem Lett, 2002)

Assays:
Format in all cases: functional, cell-based
Conditions in all cases: Homo sapiens
[1] = test system: A549; assay: Inhibitory activity against A549 lung cancer cell line
[2] = test system: A549; assay: Inhibitory activity against Taxol-resistant A549 lung cancer cell line
[3] = test system: KB; assay: Inhibitory activity against KB nasopharynx cancer cell line
[4] = test system: KB; assay: Inhibitory activity against Vincristine-resistant KB nasopharynx cancer cell line
[5] = test system: MCF7; assay: Inhibitory activity against Adriamycin-resistant MCF-7 breast cancer cell line
[6] = test system: MCF7; assay: Inhibitory activity against MCF-7 breast cancer cell line

SMILES | IC50 [1] [nM] | IC50 [2] [nM] | IC50 [3] [nM] | IC50 [4] [nM] | IC50 [5] [nM] | IC50 [6] [nM]
CC(=O)O[C@H]1C(=O)[C@@]2(C)C([C@H](NC(=O)c3cccc(Cl)c3)[C@]3(O)C[C@H](OC(=O)[C@@H](O)[C@@H](NC(=O)OC(C)(C)C)c4ccccc4)C(C)=C1C3(C)C)[C@@](CO)(OC(C)=O)[C@@H](O)C[C@@H]2O (some centres undefined) | > 100 | > 1000 | > 100 | > 1000 |  | 
CC(=O)O[C@H]1C(=O)[C@@]2(C)C([C@H](NC(=O)OCc3ccccc3)[C@]3(O)C[C@H](OC(=O)[C@@H](O)[C@@H](NC(=O)OC(C)(C)C)c4ccccc4)C(C)=C1C3(C)C)[C@]1(OC(C)=O)CO[C@@H]1C[C@@H]2O (some centres undefined) | > 100 | > 1000 | > 100 | > 1000 |  | 
CC(=O)O[C@H]1C(=O)[C@@]2(C)C([C@H](NC(=O)c3ccc(Cl)cc3)[C@]3(O)C[C@H](OC(=O)[C@@H](O)[C@@H](NC(=O)OC(C)(C)C)c4ccccc4)C(C)=C1C3(C)C)[C@@](CO)(OC(C)=O)[C@@H](O)C[C@@H]2O (some centres undefined) | > 100 | > 1000 | > 100 | > 1000 |  | 
CC(=O)O[C@H]1C(=O)[C@@]2(C)C([C@H](NC(=O)c3ccc(Cl)cc3)[C@]3(O)C[C@H](OC(=O)[C@@H](O)[C@@H](NC(=O)OC(C)(C)C)c4ccccc4)C(C)=C1C3(C)C)[C@]1(OC(C)=O)CO[C@@H]1C[C@@H]2O (some centres undefined) | > 100 | > 1000 | > 100 | > 1000 |  | 
CC(=O)O[C@H]1C(=O)[C@@]2(C)C([C@H](NC(=O)c3ccccc3)[C@]3(O)C[C@H](OC(=O)[C@@H](O)[C@@H](NC(=O)OC(C)(C)C)c4ccccc4)C(C)=C1C3(C)C)[C@@](CO)(OC(C)=O)[C@@H](O)C[C@@H]2O (some centres undefined) | > 100 | > 1000 | > 100 | > 1000 |  | 
CC(=O)O[C@H]1C(=O)[C@@]2(C)C([C@H](NC(=O)c3ccc([N+](=O)[O-])cc3)[C@]3(O)C[C@H](OC(=O)[C@@H](O)[C@@H](NC(=O)OC(C)(C)C)c4ccccc4)C(C)=C1C3(C)C)[C@]1(OC(C)=O)CO[C@@H]1C[C@@H]2O (some centres undefined) | > 100 | > 1000 | > 100 | > 1000 |  | 

Further lines, results first:

IC50 [1] [nM] | IC50 [2] [nM] | IC50 [3] [nM] | IC50 [4] [nM] | IC50 [5] [nM] | IC50 [6] [nM] | SMILES
> 100 | > 1000 | > 100 | > 1000 |  |  | COc1ccc(C(=O)N[C@H]2C3[C@](C)(C(=O)[C@H](OC(C)=O)C4=C(C)[C@@H](OC(=O)[C@@H](O)[C@@H](NC(=O)OC(C)(C)C)c5ccccc5)C[C@]2(O)C4(C)C)[C@@H](O)C[C@H]2OC[C@@]32OC(C)=O)cc1 (some centres undefined)
250 |  | 150 |  |  |  | CC(=O)O[C@H]1C(=O)[C@@]2(C)C([C@H](NC(=O)c3ccccc3)[C@]3(O)C[C@H](OC(=O)[C@@H](O)[C@@H](NC(=O)OC(C)(C)C)c4ccccc4)C(C)=C1C3(C)C)[C@]1(OC(C)=O)CO[C@@H]1C[C@@H]2O (some centres undefined)
95 | 1100 | 78 | > 1000 | > 4500 | 110 | CC(=O)O[C@H]1C(=O)[C@@]2(C)C([C@H](NC(=O)c3cccc(Cl)c3)[C@]3(O)C[C@H](OC(=O)[C@@H](O)[C@@H](NC(=O)OC(C)(C)C)c4ccccc4)C(C)=C1C3(C)C)[C@]1(OC(C)=O)CO[C@@H]1C[C@@H]2O (some centres undefined)
83 | 1000 | 74 | 1100 | > 4600 | 73 | COc1cccc(C(=O)N[C@H]2C3[C@](C)(C(=O)[C@H](OC(C)=O)C4=C(C)[C@@H](OC(=O)[C@@H](O)[C@@H](NC(=O)OC(C)(C)C)c5ccccc5)C[C@]2(O)C4(C)C)[C@@H](O)C[C@H]2OC[C@@]32OC(C)=O)c1 (some centres undefined)
4.1 | 98 | 4.4 | 200 | 4200 | 7.9 | CC(=O)O[C@@]12CO[C@@H]1C[C@H](O)[C@@]1(C)C(=O)[C@H](O)C3=C(C)[C@@H](OC(=O)[C@H](O)[C@@H](NC(=O)OC(C)(C)C)c4ccccc4)C[C@@](O)([C@@H](OC(=O)c4ccccc4)[C@H]21)C3(C)C [DOCETAXEL]
12 | 960 | 9.1 | 1700 | > 6000 | 5.5 | CC(=O)O[C@H]1C(=O)[C@@]2(C)[C@H]([C@H](OC(=O)c3ccccc3)[C@]3(O)C[C@H](OC(=O)[C@H](O)[C@@H](NC(=O)c4ccccc4)c4ccccc4)C(C)=C1C3(C)C)[C@]1(OC(C)=O)CO[C@@H]1C[C@@H]2O [PACLITAXEL]
